Assay [1] has as its target T1, Cannabinoid CB1 Receptor (Homo sapiens, UniProt P21554).
T1 construct: expressed in transfected cells
Kind of assay: Binding assay for CB1 agonists or inverse agonists (radioligand competition, membranes of transfected SK-N-MC cells). The conditions noted are these: for inhibition at 0.2 µM: read-out: Cannabinoid CB1 Receptor Binding percent inhibition. For orientation: Loss of bound radioactivity is the signal in a displacement assay; it reports binding, not function.

Assay [2] deals with T2, Cannabinoid CB2 Receptor (Homo sapiens, UniProt P34972).
T2 construct: expressed in transfected cells
T2 sequence (P34972 whole entry): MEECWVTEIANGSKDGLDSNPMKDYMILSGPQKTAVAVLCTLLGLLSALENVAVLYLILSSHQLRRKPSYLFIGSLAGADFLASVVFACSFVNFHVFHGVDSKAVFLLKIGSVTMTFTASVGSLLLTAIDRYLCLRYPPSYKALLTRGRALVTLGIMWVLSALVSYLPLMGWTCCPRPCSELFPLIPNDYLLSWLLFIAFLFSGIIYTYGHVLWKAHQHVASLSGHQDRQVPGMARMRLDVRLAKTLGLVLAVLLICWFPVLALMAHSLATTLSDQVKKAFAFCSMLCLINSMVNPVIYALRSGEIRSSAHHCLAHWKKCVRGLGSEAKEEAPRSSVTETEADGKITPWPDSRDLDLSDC
Kind of assay: Binding assay for CB2 agonists or inverse agonists (radioligand competition, membranes of transfected SK-N-MC cells). To be noted: for inhibition at 0.2 µM: read-out: Cannabinoid CB2 Receptor Binding percent inhibition.

The mark [3] stands for this setting: test concentration of 0.2 μM, compounds without an IC50 binding value.

Read-outs that look alike come from different tables or passages of the source.

T1 sequence (P21554 whole entry): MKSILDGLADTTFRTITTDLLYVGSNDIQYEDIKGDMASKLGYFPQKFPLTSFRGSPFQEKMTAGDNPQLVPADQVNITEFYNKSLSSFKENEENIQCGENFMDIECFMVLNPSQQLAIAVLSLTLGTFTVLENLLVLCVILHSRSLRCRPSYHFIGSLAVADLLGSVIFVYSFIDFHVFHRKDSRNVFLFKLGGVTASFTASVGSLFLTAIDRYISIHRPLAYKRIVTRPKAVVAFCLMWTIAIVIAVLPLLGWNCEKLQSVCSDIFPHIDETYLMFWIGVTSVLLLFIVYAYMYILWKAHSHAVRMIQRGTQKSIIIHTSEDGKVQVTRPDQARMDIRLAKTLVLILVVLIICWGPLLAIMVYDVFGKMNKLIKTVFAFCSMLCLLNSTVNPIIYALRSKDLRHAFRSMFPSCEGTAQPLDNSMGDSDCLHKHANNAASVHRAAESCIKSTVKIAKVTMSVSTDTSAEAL

`C[C@H](NC(=O)c1nn(-c2ccc(Cl)cc2Cl)c2c1CN(C(=O)OC(C)(C)C)C/C2=C\c1ccc(F)cc1)C1CCCCC1` [Cpd 4, (7E)-3-[(1S)-1-cyclohexyl-ethylcarbamoyl]-1-(2,4-dichloro-phenyl)-7-(4-fluoro-benzylidene)-1,4,6,7-tetrahydro-pyrazolo[4,3-c]pyridine-5-carboxylic acid tert-butyl ester]: the inhibition (as a rule, the drop in the measured response relative to a control, in per cent) at 0.2 µM in assay [1] worked out at 48%; in assay [2], 9%.

In the case of `C[C@H](NC(=O)c1nn(-c2ccc(Cl)cc2Cl)c2c1CNC/C2=C\c1ccc(F)cc1)C1CCCCC1` [Cpd 5, (7E)-1-(2,4-dichloro-phenyl)-7-(4-fluoro-benzylidene)-4,5,6,7-tetrahydro-1H-pyrazolo[4,3-c]pyridine-3-carboxylic acid [(1S)-1-cyclohexyl-ethyl]-amide], the inhibition at 0.2 µM is 48% in assay [1] and 8% in assay [2].

Take `COc1ccc(/C=C2\CN(S(=O)(=O)N(C)C)Cc3c(C(=O)N[C@H](C)c4ccccc4)nn(-c4ccc(Cl)cc4Cl)c32)cc1` [Cpd 47]: the IC50 (commonly the concentration that inhibits the measured activity by half) in assay [1] was 2 nM. In assay [2] (setting [3]), the “Cannabinoid CB2 Receptor Binding percent inhibition” value is on record as 66%.

In the case of `COc1ccc(/C=C2\CN(CC(=O)O)Cc3c(C(=O)N[C@H](C)c4ccccc4)nn(-c4ccc(Cl)cc4Cl)c32)cc1` [Cpd 51, (7E)-[1-(2,4-dichloro-phenyl)-7-(4-methoxy-benzylidene)-3-[(1R)-1-phenyl-ethylcarbamoyl]-1,4,6,7-tetrahydro-pyrazolo[4,3-c]pyridin-5-yl]-acetic acid], the inhibition at 0.2 µM came out at 49% in assay [1] (setting [3]) and 19% in assay [2] (setting [3]).

Turning to `C[C@@H](NC(=O)c1nn(-c2ccc(Cl)cc2Cl)c2c1CN(CC(=O)O)C/C2=C\c1ccc(F)cc1)c1ccccc1` [Cpd 52, (7E)-[1-(2,4-dichloro-phenyl)-7-(4-fluoro-benzylidene)-3-[(1R)-1-phenyl-ethylcarbamoyl]-1,4,6,7-tetrahydro-pyrazolo[4,3-c]pyridin-5-yl]-acetic acid], the inhibition at 0.2 µM in assay [1] (setting [3]) was 38%; in assay [2] (setting [3]) it was 7%.

With `CC(NC(=O)c1nn(-c2ccc(Cl)cc2)c2c1CN(C(=O)OC(C)(C)C)C/C2=C\c1ccc(F)cc1)c1ccccn1` (centres unmarked) [Cpd 73, (7E)-1-(4-chloro-phenyl)-7-(4-fluoro-benzylidene)-3-(1-pyridin-2-yl-ethylcarbamoyl)-1,4,6,7-tetrahydro-pyrazolo[4,3-c]pyridine-5-carboxylic acid tert-butyl ester], the figures for the inhibition at 0.2 µM in assay [1] (setting [3]) and in assay [2] (setting [3]) were 50% and 6%, respectively.

For `CC(C)(C)OC(=O)N1C/C(=C\c2ccc(F)cc2)c2c(c(C(=O)NN3CCCCC3)nn2-c2ccc(Cl)cc2)C1` [Cpd 74, (7E)-1-(4-chloro-phenyl)-7-(4-fluoro-benzylidene)-3-(piperidin-1-ylcarbamoyl)-1,4,6,7-tetrahydro-pyrazolo[4,3-c]pyridine-5-carboxylic acid tert-butyl ester], the inhibition at 0.2 µM amounted to 39% in assay [1] (setting [3]) and 3% in assay [2] (setting [3]).

Regarding `CC(=O)N1C/C(=C\c2ccc(F)cc2)c2c(c(C(=O)NN3CCCCC3)nn2-c2ccc(Cl)cc2)C1` [Cpd 81, (7E)-5-acetyl-1-(4-chloro-phenyl)-7-(4-fluoro-benzylidene)-4,5,6,7-tetrahydro-1H-pyrazolo[4,3-c]pyridine-3-carboxylic acid piperidin-1-ylamide], the figures for the inhibition at 0.2 µM in assay [1] (setting [3]) and in assay [2] (setting [3]) were 10% and 22%, respectively.

In turn, `COC(=O)N1C/C(=C\c2ccc(F)cc2)c2c(c(C(=O)NN3CCCCC3)nn2-c2ccc(Cl)cc2)C1` [Cpd 82, (7E)-1-(4-chloro-phenyl)-7-(4-fluoro-benzylidene)-3-(piperidin-1-ylcarbamoyl)-1,4,6,7-tetrahydro-pyrazolo[4,3-c]pyridine-5-carboxylic acid methyl ester] showed an IC50 in assay [1] of 60 nM. Also, the “Cannabinoid CB2 Receptor Binding percent inhibition” value in assay [2] (setting [3]) was determined as 32%.

For the molecule `CCNC(=O)N1C/C(=C\c2ccc(F)cc2)c2c(c(C(=O)NN3CCCCC3)nn2-c2ccc(Cl)cc2)C1` [Cpd 83, (7E)-1-(4-chloro-phenyl)-7-(4-fluoro-benzylidene)-1,4,6,7-tetrahydro-pyrazolo[4,3-c]pyridine-3,5-dicarboxylic acid 5-ethylamide 3-piperidin-1-ylamide], the inhibition at 0.2 µM came to 32% in assay [1] (setting [3]) and 19% in assay [2] (setting [3]).

On to `CC(C)(C)OC(=O)N1C/C(=C\c2ccc(F)cc2)c2c(c(C(=O)NN3CC4CCCC4C3)nn2-c2ccc(Cl)cc2)C1` (centres unmarked) [Cpd 84, (7E)-1-(4-chloro-phenyl)-7-(4-fluoro-benzylidene)-3-(hexahydro-cyclopenta[c]pyrrol-2-ylcarbamoyl)-1,4,6,7-tetrahydro-pyrazolo[4,3-c]pyridine-5-carboxylic acid tert-butyl ester], for which the inhibition at 0.2 µM in assay [1] (setting [3]) amounted to 30%; in assay [2] (setting [3]) it was 12%.

In the case of `O=C(NN1CC2CCCC2C1)c1nn(-c2ccc(Cl)cc2)c2c1CNC/C2=C\c1ccc(F)cc1` (centres unmarked) [Cpd 85, (7E)-1-(4-chloro-phenyl)-7-(4-fluoro-benzylidene)-4,5,6,7-tetrahydro-1H-pyrazolo[4,3-c]pyridine-3-carboxylic acid (hexahydro-cyclopenta[c]pyrrol-2-yl)-amide], the figures for the inhibition at 0.2 µM in assay [1] (setting [3]) and in assay [2] (setting [3]) were 45% and 11%, respectively.

Regarding `CC(=O)N1C/C(=C\c2ccc(F)cc2)c2c(c(C(=O)NN3CC4CCCC4C3)nn2-c2ccc(Cl)cc2)C1` (centres unmarked) [Cpd 86, (7E)-5-acetyl-1-(4-chloro-phenyl)-7-(4-fluoro-benzylidene)-4,5,6,7-tetrahydro-1H-pyrazolo[4,3-c]pyridine-3-carboxylic acid (hexahydro-cyclopenta[c]pyrrol-2-yl)-amide], the figures for the inhibition at 0.2 µM in assay [1] (setting [3]) and in assay [2] (setting [3]) were 46% and 24%, respectively.

On to `CC(C)(C)OC(=O)N1C/C(=C\c2ccc(F)cc2)c2c(c(C(=O)NN3CC4CCCC4C3)nn2-c2ccc(Cl)cc2Cl)C1` (centres unmarked) [Cpd 88, (7E)-1-(2,4-dichloro-phenyl)-7-(4-fluoro-benzylidene)-3-(hexahydro-cyclopenta[c]pyrrol-2-ylcarbamoyl)-1,4,6,7-tetrahydro-pyrazolo[4,3-c]pyridine-5-carboxylic acid tert-butyl ester], for which the inhibition at 0.2 µM in assay [1] (setting [3]) is 53%; in assay [2] (setting [3]), 0%.

Regarding `COc1ccc(/C=C2\CN(C(=O)OC(C)(C)C)Cc3c(C(=O)NN4CC5CCCC5C4)nn(-c4ccc(Cl)cc4Cl)c32)cc1` (centres unmarked) [Cpd 94, (7E)-1-(2,4-dichloro-phenyl)-3-(hexahydro-cyclopenta[c]pyrrol-2-ylcarbamoyl)-7-(4-methoxy-benzylidene)-1,4,6,7-tetrahydro-pyrazolo[4,3-c]pyridine-5-carboxylic acid tert-butyl ester], the inhibition at 0.2 µM amounted to 70% in assay [1] (setting [3]) and 38% in assay [2] (setting [3]).

Turning to `CCNC(=O)N1C/C(=C\c2ccc(OC)cc2)c2c(c(C(=O)NN3CC4CCCC4C3)nn2-c2ccc(Cl)cc2Cl)C1` (centres unmarked) [Cpd 101, (7E)-1-(2,4-dichloro-phenyl)-7-(4-methoxy-benzylidene)-1,4,6,7-tetrahydro-pyrazolo[4,3-c]pyridine-3,5-dicarboxylic acid 5-ethylamide 3-[(hexahydro-cyclopenta[c]pyrrol-2-yl)-amide]], the inhibition at 0.2 µM in assay [1] (setting [3]) was determined as 68%; in assay [2] (setting [3]), 15%.

As to `CCCCn1nc(C(=O)NN2CCCCC2)c2c1CCN(C(=O)OC)C2` [Cpd 102, 1-butyl-3-(piperidin-1-ylcarbamoyl)-1,4,6,7-tetrahydro-pyrazolo[4,3-c]pyridine-5-carboxylic acid methyl ester], the inhibition at 0.2 µM in assay [2] (setting [3]) came out at 23%.

For the molecule `CC12CCC(C1)C(C)(C)C2NC(=O)c1nn(Cc2ccccc2)c2c1CN(C(=O)OCc1ccccc1)CC2` (centres unmarked) [Cpd 108, 1-benzyl-3-(1,3,3-trimethyl-bicyclo[2.2.1]hept-2-ylcarbamoyl)-1,4,6,7-tetrahydro-pyrazolo[4,3-c]pyridine-5-carboxylic acid benzyl ester], the IC50 stood at 200 nM in assay [1] and 2 nM in assay [2].

Turning to `CCC(=O)N1CCc2c(c(C(=O)NC3C4(C)CCC(C4)C3(C)C)nn2Cc2ccccc2)C1` (centres unmarked) [Cpd 110, 1-benzyl-5-propionyl-4,5,6,7-tetrahydro-1H-pyrazolo[4,3-c]pyridine-3-carboxylic acid (1,3,3-trimethyl-bicyclo[2.2.1]hept-2-yl)-amide], the half-maximal inhibitory concentration (IC50) was determined as 500 nM in assay [1] and 20 nM in assay [2].

On to `CC12CCC(C1)C(C)(C)C2NC(=O)c1nn(C2CCCCC2)c2c1CN(C(=O)OCc1ccccc1)CC2` (centres unmarked) [Cpd 121, 1-cyclohexyl-3-(1,3,3-trimethyl-bicyclo[2.2.1]hept-2-ylcarbamoyl)-1,4,6,7-tetrahydro-pyrazolo[4,3-c]pyridine-5-carboxylic acid benzyl ester], for which the IC50 in assay [1] was found to be 1500 nM; in assay [2], 90 nM.

Take `CCOC(=O)CN1CCc2c(c(C(=O)NC3C4(C)CCC(C4)C3(C)C)nn2C2CCCCC2)C1` (centres unmarked) [Cpd 126, [1-cyclohexyl-3-(1,3,3-trimethyl-bicyclo[2.2.1]hept-2-ylcarbamoyl)-1,4,6,7-tetrahydro-pyrazolo[4,3-c]pyridin-5-yl]-acetic acid ethyl ester]: the half-maximal inhibitory concentration (IC50) in assay [1] (human CB1, SK-N-MC cell membranes, calculated by linear regression from percent inhibition at various concentrations, read-out: Cannabinoid CB1 Receptor Binding IC50) was 1200 nM. Also, in assay [2] (setting [3]), the inhibition at 0.2 µM was 49%.

In assay [1], `CC(C)(C)OC(=O)N1CCc2c(c(C(=O)NC3C4CC5CC(C4)CC3C5)nn2C2CCCCC2)C1` (centres unmarked) [Cpd 130, 3-(adamantan-2-ylcarbamoyl)-1-cyclohexyl-1,4,6,7-tetrahydro-pyrazolo[4,3-c]pyridine-5-carboxylic acid tert-butyl ester] registered an IC50 of 60 nM.

Regarding `CC(C)(C)OC(=O)N1C/C(=C\c2ccc(F)cc2)c2c(c(C(=O)N3CCCCC3)nn2-c2ccc(Cl)cc2Cl)C1` [Cpd 135, (7E)-1-(2,4-dichloro-phenyl)-7-(4-fluoro-benzylidene)-3-(piperidine-1-carbonyl)-1,4,6,7-tetrahydro-pyrazolo[4,3-c]pyridine-5-carboxylic acid tert-butyl ester], the inhibition at 0.2 µM in assay [1] (setting [3]) was determined as 40%; in assay [2] (setting [3]), 28%.

These data come from patent US20060089378A1 (priority 2004, published 2006).
